According to ChEMBL document CHEMBL6074675, “4-Substituted-2-Thiazole Amides as Viral Replication Inhibitors of Alphaviruses” (J Med Chem, 2024):
≈ marks a conversion by molar mass, not a printed value.

Columns and labels:
[1] = Kinetic solubility of the compound in simulated intestinal fluid at pH 7.5 by LC-MS analysis; assay type: physicochemical; conditions: read-out: Kinetic_solubility
[2] = Half life of the compound in human liver microsomes in presence of NADPH by LC-MS/MS analysis; assay type: ADME, Microsome
West Nile virus [3] = assay: Antiviral activity against West Nile virus NY99 infected in human HEK293 cells assessed as log reduction of virus titer at 10 uM measured at 3 days post-infection by focus-forming assay; assay type: functional; conditions: time 3 day
dengue virus type 2 [4] = assay: Antiviral activity against Dengue virus 2 NGC infected in human HEK293 cells assessed as log reduction of virus titer at 10 uM measured at 3 days post-infection by focus-forming assay; assay type: functional; conditions: time 3 day
[5] = tested on: Venezuelan equine encephalitis virus; assay: Antiviral activity against VEEV TC-83 infected in human NHDF cells assessed as log reduction of virus titer at 10 uM treated with cells at 1 hr prior to infection and measured at 24 hrs post-infection by plaque assay; assay type: functional; conditions: time 25 hrs
Zika virus [6] = assay: Antiviral activity against Zika virus PRABC59 infected in human HEK293 cells assessed as reduction of virus load measured at 3 days post-infection by focus-forming assay; assay type: functional; conditions: PRABC59, HEK293, 72 h, time 3 day
[7] = tested on: Venezuelan equine encephalitis virus; assay: Antiviral activity against VEEV TC-83 infected in human NHDF cells assessed as reduction of virus titer treated with cells at 1 hr prior to infection and measured at 24 hrs post-infection by plaque assay; assay type: functional; conditions: TC-83, NHDF, time 25 hrs
dengue virus type 2 [8] = assay: Antiviral activity against Dengue virus 2 NGC infected in human HEK293 cells assessed as reduction of virus load measured at 3 days post-infection by focus-forming assay; assay type: functional; conditions: HEK293, 72 h, time 3 day
Chikungunya virus [9] = assay: Antiviral activity against Chikungunya virus 181/25 infected in human NHDF cells assessed as reduction of virus titer treated with cells at 1 hr prior to infection and measured at 24 hrs post-infection by plaque assay; assay type: functional, organism-based; conditions: 181/25, NHDF; for EC90: time 25 hrs
[10] = Cytotoxicity against human NHDF cells deficient of IRF3 assessed as reduction in cell viability incubated for 72 hrs by CellTiter Glo luminescence assay; assay type: toxicity, cell-based
[11] = Cytotoxicity against human NHDF cells assessed as reduction in cell viability incubated for 24 hrs by CellTiter Glo luminescence assay; assay type: toxicity, cell-based
Chikungunya virus [12] = assay: Antiviral activity against Chikungunya virus 181/25 infected in human NHDF cells assessed as log reduction of virus titer at 10 uM treated with cells at 1 hr prior to infection and measured at 24 hrs post-infection by plaque assay; assay type: functional; conditions: time 25 hrs
West Nile virus [13] = assay: Antiviral activity against West Nile virus NY99 infected in human HEK293 cells assessed as reduction of virus load measured at 3 days post-infection by focus-forming assay; assay type: functional; conditions: NY99, HEK293, 72 h, time 3 day
Zika virus [14] = assay: Antiviral activity against Zika virus PRABC59 infected in human HEK293 cells assessed as log reduction of virus titer at 10 uM measured at 3 days post-infection by focus-forming assay; assay type: functional; conditions: time 3 day
[15] = Half life of the compound in mouse liver microsomes in presence of NADPH by LC-MS/MS analysis; assay type: ADME, Microsome
[16] = Octanol/PBS buffer distribution coefficient, logD of the compound at pH 7.5 by LC-MS analysis; assay type: physicochemical
[17] = Cytotoxicity against human HEK293 cells; assay type: toxicity, cell-based
Chikungunya virus [18] = assay: Antiviral activity against Chikungunya virus Sri Lanka strain infected in African green monkey Vero E6 cells assessed as inhibition of virus-induced cytopathic effect incubated for 72 hrs by CellTiter Glo luminescence assay; assay type: functional, organism-based; conditions: Vero C1008, 72 h
[19] = Cytotoxicity against African green monkey VeroE6 cells assessed as reduction in cell viability incubated for 72 hrs by CellTiter Glo luminescence analysis; assay type: toxicity, cell-based, Vero C1008; conditions: chlorocebus sabaeus
Chikungunya virus [20] = assay: Antiviral activity against Chikungunya virus infected in human NHDF cells assessed as inhibition of viral production by NanoLuc reporter assay; assay type: functional, organism-based

| Compound | solubility kinetic [1] [µM] | half-life [2] [min] | EC90 (Chikungunya virus [9]) [µM] | CC50 at 72 h [10] [µM] | log(activity) (Chikungunya virus [12]) | half-life [15] [min] | logD [16] | further results |
| --- | --- | --- | --- | --- | --- | --- | --- | --- |
| CSc1ncccc1C(=O)Nc1nc(-c2cccc(-c3cccc(C#N)c3)c2)cs1 | < 1 | 21 | 0.1 | > 30 | 5.3 | 31 | 3 | log(activity) (West Nile virus [3]): 2.7; log(activity) (dengue virus type 2 [4]): 2.9; log(activity) [5]: 5.2; EC90 (Zika virus [6]): 0.3 µM; EC90 [7]: 0.35 µM; EC90 (dengue virus type 2 [8]): 0.3 µM; CC50 at 24 h [11]: > 30 µM; EC90 (West Nile virus [13]): 1.5 µM; log(activity) (Zika virus [14]): 3.5; CC50 [17]: > 30 µM |
| O=C(Nc1nc(-c2ccc3ccccc3c2)cs1)c1cc(F)c(O)c(F)c1 | < 1 | 137 | 2.9 | 20 | 7.6 | 36 | > 3.45 |  |
| CSc1ncccc1C(=O)Nc1nc(-c2cccc(N3CCNCC3)c2)cs1 | 59 (≈ 24.3 µg/mL) | > 300 |  | > 30 | 8.7 | 211 | 1.8 |  |
| CSc1ncccc1C(=O)Nc1nc(-c2ccc3ncccc3c2)cs1 | 56 (≈ 21.2 µg/mL) | 17 | 7.9 | 18 | 1.2 | 13 | 3.8 |  |
| CSc1ncccc1C(=O)Nc1nc(-c2cccc(-c3ccccn3)c2)cs1 | < 1 | 15 | 0.7 | > 30 | 4 | 8 | > 3.83 |  |
| CSc1ncccc1C(=O)Nc1nc(-c2cc(C(=O)O)cc(-c3ccc(C#N)cc3)c2)cs1 | < 1 | > 300 |  | > 40 | 0 | > 300 | 1.9 |  |
| CSc1ncccc1C(=O)Nc1nc(-c2cccc(Nc3ccc(C#N)cn3)c2)cs1 | < 1 | 19 | 4.8 | 40 | 2.2 | 17 |  |  |
| COc1cc(Nc2cccc(-c3csc(NC(=O)c4cccnc4SC)n3)c2)ccc1C#N | < 1 | 25 |  | > 30 | 5.1 | 34 | > 4.33 | log(activity) (West Nile virus [3]): 2.9; log(activity) (dengue virus type 2 [4]): 3; log(activity) [5]: 2; EC90 (Zika virus [6]): 0.5 µM; EC90 [7]: 0.21 µM; EC90 (dengue virus type 2 [8]): 0.4 µM; CC50 at 24 h [11]: > 30 µM; EC90 (West Nile virus [13]): 1.2 µM; log(activity) (Zika virus [14]): 3; CC50 [17]: > 30 µM |
| CSc1ncccc1C(=O)Nc1nc(-c2cc(-c3ccc(C#N)cc3)ccc2F)cs1 | < 1 | 85 |  | > 30 | 5.8 | 69 | 2 |  |
| CSc1ncccc1C(=O)Nc1nc(-c2cccc(-c3ccc(C#N)c(O)c3)c2)cs1 | 3 (≈ 1.33 µg/mL) | 43 |  | > 30 | 8.5 | 49 | > 3.91 |  |
| Cc1ncccc1C(=O)Nc1nc(-c2ccc3ccccc3c2)cs1 | 3 (≈ 1.04 µg/mL) | 26 | 3.2 | > 30 | 1.9 | 26 | > 4.27 |  |
| CSc1ncccc1C(=O)Nc1nc(-c2cc(Nc3ccc(C#N)cc3)cc(N3CCOCC3)c2)cs1 | < 1 | 15 | 0.1 | > 40 | 5.1 | 64 | > 3.92 | log(activity) (dengue virus type 2 [4]): 1.9; log(activity) [5]: 3.81; EC90 (Zika virus [6]): 0.8 µM; EC90 [7]: 0.45 µM; EC90 (dengue virus type 2 [8]): 1.8 µM; CC50 at 24 h [11]: > 30 µM; EC90 (West Nile virus [13]): 24 µM; log(activity) (Zika virus [14]): 1.7; CC50 [17]: > 30 µM |
| CSc1ncccc1C(=O)Nc1nc(-c2cccc(Nc3ccc(C#N)c(O)c3)c2)cs1 | 1 (≈ 0.46 µg/mL) | 43 | 10.1 | 15.9 | 1.2 | 35 | > 3.46 |  |
| CSc1ncccc1C(=O)Nc1nc(-c2cccc(Nc3cccc(C#N)c3)c2)cs1 | < 1 | 25 |  | > 30 | 5.7 | 33 | > 3.54 | log(activity) (West Nile virus [3]): 4.3; log(activity) (dengue virus type 2 [4]): 3.7; log(activity) [5]: 7.3; EC90 (Zika virus [6]): 0.4 µM; EC90 [7]: 0.6 µM; EC90 (dengue virus type 2 [8]): 0.5 µM; CC50 at 24 h [11]: > 30 µM; EC90 (West Nile virus [13]): 1.1 µM; log(activity) (Zika virus [14]): 3.4; CC50 [17]: > 30 µM |
| CC(C)(C)c1ccc(C(=O)Nc2nc(-c3ccc4ccccc4c3)cs2)cc1 | < 1 | 49 | 0.1 | > 30 | 4.3 | 8 | > 3.32 |  |
| CCOC(=O)N1CCN(c2cc(-c3ccc(C#N)cc3)cc(-c3csc(NC(=O)c4cccnc4SC)n3)c2)CC1 | < 1 | 21 | 0.02 | > 40 | 8.1 | 63 | > 3.99 | log(activity) (West Nile virus [3]): 4; log(activity) (dengue virus type 2 [4]): 3.3; log(activity) [5]: 4.9; EC90 (Zika virus [6]): 0.15 µM; EC90 [7]: 0.02 µM; EC90 (dengue virus type 2 [8]): 0.3 µM; CC50 at 24 h [11]: > 30 µM; EC90 (West Nile virus [13]): 0.15 µM; log(activity) (Zika virus [14]): 3.5; CC50 [17]: > 30 µM |
| CSc1ncccc1C(=O)Nc1nc(-c2cccc(Nc3ccc(CN)cc3)c2)cs1 | 33 (≈ 14.8 µg/mL) | 37 | 9.8 | 15.4 | 1.2 | 234 | 2.2 |  |
| CSc1ncccc1C(=O)Nc1nc(-c2cccc(-c3ccc(C#N)cn3)c2)cs1 | < 1 | 25 |  | > 30 | 6 | 34 | > 3.97 |  |
| CSc1ncccc1C(=O)Nc1nc(-c2cccc(Nc3ccc(C#N)c(C(=O)O)c3)c2)cs1 | 84 (≈ 41 µg/mL) | 145 | > 40 | > 40 | 0.15 | 72 | 1.4 |  |
| CSc1ncccc1C(=O)Nc1nc(-c2ccc3ccccc3c2)cs1 | < 1 | 35 | 0.93 | > 40 | 6.9 | 27 | 4.8 | EC50 (Chikungunya virus [18]): 4.5 µM; CC50 at 72 h [19]: 107 µM; EC50 (Chikungunya virus [9]): 4.7 µM; CC50 at 24 h [11]: 132 µM; EC50 (Chikungunya virus [20]): 1.06 µM |
| CC(C)(C)c1ncc(C(=O)Nc2nc(-c3ccc4ccccc4c3)cs2)s1 | < 1 | 51 | 3.5 | > 30 | 7.5 | 9 | > 3.03 |  |
| CSc1ncccc1C(=O)Nc1nc(-c2cccc(-c3ccc(C#N)cc3)c2)cs1 | < 1 | 39 |  | > 30 | 4.7 | 57 | > 4.66 |  |
| CC(C)(C#N)c1ccc(C(=O)Nc2nc(-c3ccc4ccccc4c3)cs2)cc1 | < 1 | 98 | 1.5 | > 30 | 2.6 | 129 | > 3.85 |  |
| CC(C)(C(=O)O)c1ccc(C(=O)Nc2nc(-c3ccc4ccccc4c3)cs2)cc1 | 64 (≈ 26.7 µg/mL) | 292 |  | > 30 | 0 | 213 | 2.1 |  |
| CSc1ncccc1C(=O)Nc1nc(-c2cc(F)cc(-c3ccc(C#N)cc3)c2)cs1 | < 1 | 53 |  | > 30 | 6.1 | 123 | > 4.09 |  |
| CSc1ncccc1C(=O)Nc1nc(-c2cccc(-c3ccccc3)c2)cs1 | < 1 | 34 |  | > 30 | 7.8 | 51 | > 4.15 |  |
